Structures are written as SMILES. Read-outs that look alike come from different tables or passages of the source.

A short description of data set [1]: Acute toxicity, intravenous (once), ddY mice. The note with it: mouse, in vivo, formulated per Preparation Example. It counts as in vivo. An excerpt: In Table 7 are shown acute toxicity values (LD50, mg/kg) in ddY mice in the case of intravenously administering (once) each of the compounds of this invention in the form of preparations shown in the Preparation Examples shown in Table 7.

The test system of the next data set is P-388 leukemia cells. As to the kind of experiment: Antitumor activity: P-388 leukemia cells inoculated intraperitoneally, drug administered intravenously, BDF1 mice. It counts as in vivo. The note with it: Mus musculus, P388, iv, read-out: T/C (%) of MST; for response vs control in vivo at 50 mg/kg: dose d: 50 mg/kg × 3, i.v. on days 1, 5 and 9; for response vs control in vivo at 60 mg/kg: dose e: 60 mg/kg × 3, i.v. on days 1, 5 and 9. The essentials:
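Drug dosing was intravenous on the first, fifth and ninth days after intraperitoneal inoculation of P-388 leukemia cells (1×10^6 per mouse) into BDF1 mice. Vehicles were physiological saline alone, or saline with small amounts of sodium carboxymethyl cellulose or Tween-80.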

Where [2] appears, read: dose c: 40 mg/kg × 3, i.v. on days 1, 5 and 9, BDF1 mice, P-388 i.p.
Where [3] appears, read: dose f: 80 mg/kg × 3, i.v. on days 1, 5 and 9, BDF1 mice, P-388 i.p.

Consider `CO[C@H]1[C@@H](O)[C@@H](C)O[C@H](O[C@H]2[C@H](Oc3cccc4c(OC(=O)CCC(=O)c5ccc(F)cc5)c5c(=O)oc6ccc(C)c7c(=O)oc(c34)c5c67)O[C@H](C)[C@@H]3OC(C)(C)O[C@@H]32)[C@@H]1O` [compound 206], for which the LD50 in data set [1] (iv) is at least 80 mg/kg. In addition, the response vs control in vivo at 40 mg/kg in the data set on P-388 leukemia cells (setting [2]) is 139%. Also, in the data set on P-388 leukemia cells (setting [3]), the response vs control in vivo at 80 mg/kg was found to be 180%.
In data set [1] (iv), `COC(=O)c1ccc(C(=O)Oc2c3cccc(O[C@@H]4O[C@H](C)[C@@H]5OC(C)(C)O[C@@H]5[C@H]4O[C@H]4O[C@H](C)[C@H](O)[C@H](OC)[C@H]4O)c3c3oc(=O)c4c(C)ccc5oc(=O)c2c3c54)cc1` [compound 207] displayed a 50% lethal dose (LD50) of at least 80 mg/kg. In the data set on P-388 leukemia cells (setting [2]), the response vs control in vivo at 40 mg/kg was found to be 130%. Also, in the data set with P-388 leukemia cells (setting [3]), the response vs control in vivo at 80 mg/kg worked out at 192%.
The matching figures for `COc1ccc(C(=O)Oc2c3cccc(O[C@@H]4O[C@H](C)[C@@H]5OC(C)(C)O[C@@H]5[C@H]4O[C@H]4O[C@H](C)[C@H](O)[C@H](OC)[C@H]4O)c3c3oc(=O)c4c(C)ccc5oc(=O)c2c3c54)cc1` [compound 208]: at least 80 mg/kg, 136% and 192%.
`CO[C@H]1[C@@H](O)[C@@H](C)O[C@H](O[C@H]2[C@H](Oc3cccc4c(OC(=O)c5cccc(N(C)C)c5)c5c(=O)oc6ccc(C)c7c(=O)oc(c34)c5c67)O[C@H](C)[C@@H]3OC(C)(C)O[C@@H]32)[C@@H]1O` [compound 209]: the median lethal dose (LD50) in data set [1] (iv) is at least 80 mg/kg. Besides, in the data set with P-388 leukemia cells (setting [2]), the response vs control in vivo at 40 mg/kg was determined as 134%. In addition, the response vs control in vivo at 80 mg/kg with P-388 leukemia cells (setting [3]) came out at 192%.
In data set [1] (iv), `CO[C@H]1[C@@H](O)[C@@H](C)O[C@H](O[C@H]2[C@H](Oc3cccc4c(OC(=O)CCCl)c5c(=O)oc6ccc(C)c7c(=O)oc(c34)c5c67)O[C@H](C)[C@@H]3OC(c4ccccc4F)O[C@@H]32)[C@@H]1O` (stereo partly shown) [compound 210] showed an LD50 of at least 60 mg/kg. For the same molecule, in the data set on P-388 leukemia cells (setting [2]), the response vs control in vivo at 40 mg/kg came to 186%.
`COC(=O)c1ccc(C(=O)Oc2c3cccc(O[C@@H]4O[C@H](C)[C@@H]5OC(c6ccco6)O[C@@H]5[C@H]4O[C@H]4O[C@H](C)[C@H](O)[C@H](OC)[C@H]4O)c3c3oc(=O)c4c(C)ccc5oc(=O)c2c3c54)cc1` (stereo partly shown) [compound 211] returned an LD50 in data set [1] (iv) of at least 80 mg/kg. In the data set with P-388 leukemia cells (setting [3]), the response vs control in vivo at 80 mg/kg was 176%.
Take `CO[C@H]1[C@@H](O)[C@@H](C)O[C@H](O[C@H]2[C@H](Oc3cccc4c(OC(=O)CCCCl)c5c(=O)oc6ccc(C)c7c(=O)oc(c34)c5c67)O[C@H](C)[C@@H]3OC(c4ccccc4)O[C@@H]32)[C@@H]1O` (stereo partly shown) [compound 214]: the LD50 in data set [1] (iv) is at least 80 mg/kg. The response vs control in vivo at 40 mg/kg in the data set with P-388 leukemia cells (setting [2]) was 130%. Besides, the response vs control in vivo at 80 mg/kg in the data set on P-388 leukemia cells (setting [3]) is 198%.
The molecule `C/C=C(\C)C(=O)Oc1c2cccc(O[C@@H]3O[C@H](C)[C@@H]4OC(c5ccccc5)O[C@@H]4[C@H]3O[C@H]3O[C@H](C)[C@H](O)[C@H](OC)[C@H]3O)c2c2oc(=O)c3c(C)ccc4oc(=O)c1c2c43` (stereo partly shown) [compound 215] registered a median lethal dose (LD50) in data set [1] of at least 80 mg/kg. For the same molecule, in the data set on P-388 leukemia cells, the response vs control in vivo at 40 mg/kg was 131% and the response vs control in vivo at 80 mg/kg was determined as 158%.
In data set [1], `CCCC(=O)Oc1c2cccc(O[C@@H]3O[C@H](C)[C@@H]4OC(c5ccccc5OC)O[C@@H]4[C@H]3O[C@H]3O[C@H](C)[C@H](O)[C@H](OC)[C@H]3O)c2c2oc(=O)c3c(C)ccc4oc(=O)c1c2c43` (stereo partly shown) [compound 216] gave a median lethal dose (LD50) of at least 40 mg/kg. Besides, the response vs control in vivo at 40 mg/kg in the data set on P-388 leukemia cells was 171%.
`C=CCCC(=O)Oc1c2cccc(O[C@@H]3O[C@H](C)[C@@H]4OC(c5ccc(Cl)cc5Cl)O[C@@H]4[C@H]3O[C@H]3O[C@H](C)[C@H](O)[C@H](OC)[C@H]3O)c2c2oc(=O)c3c(C)ccc4oc(=O)c1c2c43` (stereo partly shown) [compound 217] returned a 50% lethal dose (LD50) in data set [1] of at least 80 mg/kg. Further, the response vs control in vivo at 80 mg/kg with P-388 leukemia cells is 181%.
Turning to `COc1cccc(C(=O)Oc2c3cccc(O[C@@H]4O[C@H](C)[C@@H]5OC(CCc6ccccc6)O[C@@H]5[C@H]4O[C@H]4O[C@H](C)[C@H](O)[C@H](OC)[C@H]4O)c3c3oc(=O)c4c(C)ccc5oc(=O)c2c3c54)c1` (stereo partly shown) [compound 218], the median lethal dose (LD50) in data set [1] (iv) is at least 80 mg/kg. For the same molecule, the response vs control in vivo at 80 mg/kg with P-388 leukemia cells (setting [3]) is 176%.
As for `CCC1O[C@H]2[C@@H](O1)[C@@H](C)O[C@@H](Oc1cccc3c(OC(=O)C(C)CC)c4c(=O)oc5ccc(C)c6c(=O)oc(c13)c4c56)[C@@H]2O[C@H]1O[C@H](C)[C@H](O)[C@H](OC)[C@H]1O` (stereo partly shown) [compound 219], the 50% lethal dose (LD50) in data set [1] was at least 80 mg/kg. In the data set on P-388 leukemia cells, the response vs control in vivo at 40 mg/kg came to 130% and the response vs control in vivo at 80 mg/kg is 182%.
In data set [1] (iv), `CCCCCCCCCC(=O)Oc1c2cccc(OC3OC(C)C4OC(C)(C)OC4C3OC3OC(C)C(O)C(OC)C3O)c2c2oc(=O)c3c(C)ccc4oc(=O)c1c2c43` (stereo not shown) [compound 220] gave an LD50 of at least 60 mg/kg. In the data set with P-388 leukemia cells (BDF1 mice, P-388 i.p.), the response vs control in vivo at 50 mg/kg amounted to 157%.
`C/C=C/C(=O)Oc1c2cccc(OC3OC(C)C4OC5(CCCCC5)OC4C3OC3OC(C)C(O)C(OC)C3O)c2c2oc(=O)c3c(C)ccc4oc(=O)c1c2c43` (stereo not shown) [compound 221] came in with a 50% lethal dose (LD50) in data set [1] of at least 80 mg/kg. Further, the response vs control in vivo at 80 mg/kg with P-388 leukemia cells is 168%.
On to `COC1C(O)C(C)OC(OC2C(Oc3cccc4c(OC(=O)C(C)C)c5c(=O)oc6ccc(C)c7c(=O)oc(c34)c5c67)OC(C)C3OC(C)(C)OC32)C1O` (stereo not shown) [compound 222], for which the LD50 in data set [1] (iv) is at least 80 mg/kg. In the data set on P-388 leukemia cells (setting [2]), the response vs control in vivo at 40 mg/kg came to 144%. Also, in the data set with P-388 leukemia cells (setting [3]), the response vs control in vivo at 80 mg/kg stood at 162%.
Molecule `COC1C(O)C(C)OC(OC2C(Oc3cccc4c(OC(=O)CCC(=O)c5ccccc5)c5c(=O)oc6ccc(C)c7c(=O)oc(c34)c5c67)OC(C)C3OC(C)(C)OC32)C1O` (stereo not shown) [compound 224, 6-O-(3-benzoylpropionyl)-3',4'-O-isopropylidene-chartreusin] came in with an LD50 in data set [1] (iv) of at least 60 mg/kg. In addition, the response vs control in vivo at 50 mg/kg in the data set on P-388 leukemia cells (BDF1 mice, P-388 i.p.) amounted to 148%.
For `COC1C(O)C(C)OC(OC2C(Oc3cccc4c(OC(=O)COc5ccc(F)cc5)c5c(=O)oc6ccc(C)c7c(=O)oc(c34)c5c67)OC(C)C3OC(C)(C)OC32)C1O` (stereo not shown) [compound 225], the 50% lethal dose (LD50) in data set [1] (iv) was at least 60 mg/kg. In the data set with P-388 leukemia cells (BDF1 mice, P-388 i.p.), the response vs control in vivo at 60 mg/kg was 148%.
Consider `CCCC(=O)Oc1c2cccc(OC3OC(C)C4OC(c5ccco5)OC4C3OC3OC(C)C(O)C(OC)C3O)c2c2oc(=O)c3c(C)ccc4oc(=O)c1c2c43` (stereo not shown) [compound 228], for which the median lethal dose (LD50) in data set [1] (iv) was at least 60 mg/kg. The response vs control in vivo at 60 mg/kg in the data set with P-388 leukemia cells (BDF1 mice, P-388 i.p.) was found to be 140%.
For `COC1C(O)C(C)OC(OC2C(Oc3cccc4c(OC(=O)c5ccc(Br)cc5)c5c(=O)oc6ccc(C)c7c(=O)oc(c34)c5c67)OC(C)C3OC(c4ccccc4)OC32)C1O` (stereo not shown) [compound 229], in data set [1] (iv), the LD50 was at least 80 mg/kg. In addition, the response vs control in vivo at 60 mg/kg in the data set on P-388 leukemia cells (BDF1 mice, P-388 i.p.) was determined as 167%.
In the case of `C/C=C(\C)C(=O)Oc1c2cccc(OC3OC(C)C4OC(c5ccccc5)OC4C3OC3OC(C)C(O)C(OC)C3O)c2c2oc(=O)c3c(C)ccc4oc(=O)c1c2c43` (stereo not shown) [compound 231], the 50% lethal dose (LD50) in data set [1] is at least 40 mg/kg. In the data set with P-388 leukemia cells, the response vs control in vivo at 20 mg/kg stood at 150%.
`COC1C(O)C(C)OC(OC2C(Oc3cccc4c(OC(=O)C5CC5)c5c(=O)oc6ccc(C)c7c(=O)oc(c34)c5c67)OC(C)C3OC(c4ccccc4)OC32)C1O` (stereo not shown) [compound 232] returned an LD50 in data set [1] (iv) of at least 40 mg/kg. Besides, the response vs control in vivo at 10 mg/kg in the data set on P-388 leukemia cells (dose a: 10 mg/kg × 3, i.v. on days 1, 5 and 9, BDF1 mice, P-388 i.p.) stood at 146%.
`COC1C(O)C(C)OC(OC2C(Oc3cccc4c(OC(=O)C5CC5)c5c(=O)oc6ccc(C)c7c(=O)oc(c34)c5c67)OC(C)C3OC(CCc4ccccc4)OC32)C1O` (stereo not shown) [compound 233]: the LD50 in data set [1] (iv) is at least 60 mg/kg. The response vs control in vivo at 60 mg/kg in the data set with P-388 leukemia cells (BDF1 mice, P-388 i.p.) was determined as 165%.

As usually defined, the LD50 is the dose at which mortality reaches 50%. A low value points to greater toxicity.

The values above are taken from patent publication US4760136A, “Chartreusin derivatives and salts thereof” (Ishihara Sangyo Kaisha, Ltd., priority 1984, dated 1988).
